These are literature values, as cited in patent publication US10695734B2, “Microcapsule comprising a polyester-urethane shell and a hydrophilic core material” (BASF SE, priority 2015, dated 2020).

Counter-ions that a name gives are not always drawn.

For this data set the following is noted: at 20° C.

With `COc1c(Cl)ccc(Cl)c1C(=O)O` [dicamba sodium salt], the water solubility is greater than 100 mg/mL. In the case of `O=C(O)CNCP(=O)(O)O` [glyphosate potassium salt], the water solubility was greater than 500 mg/mL.
